Species: Rattus norvegicus
Experiment: Open TG-GATES - Regimen: Single
Assay type: toxicity, organism-based, Sprague-Dawley
Set-up: regimen Single, gender Male, age 6 weeks
Details: in vivo, po, 150 mg/kg, route gavage, dose level High; for APTT / Bas / Eos / Fbg / Hb / Ht / Lym / MCH / MCHC / MCV / Mono / Neu / PT / Plat / RBC / Ret / WBC: tissue Blood; for KIDNEY_L / KIDNEY_R / KIDNEY_TOTAL: tissue Kidney; for LIVER: tissue Liver; for A/G / ALP / ALT / AST / BUN / CRE / Ca / Cl / DBIL / GLC / IP / K / LDH / Na / PL / RALB / TBIL / TC / TG / TP / gamma-GTP: tissue Plasma

With `S=C=Nc1cccc2ccccc12` [1-NAPHTHYLISOTHIOCYANATE] the TERMINAL_BW (3 h) was 222.9 g, the APTT (3 h) was 17.4 s and the Bas (3 h) was 0.2%. It also gave an Eos (3 h) of 0.8%, a Fbg (3 h) of 243 mg/dL and a Hb (3 h) of 13.9 g/dL. The Ht (3 h) was 38.6%, the Lym (3 h) was 77.8% and the MCH (3 h) was 22.3 pg. For the same compound, the MCHC (3 h) was 36%, the MCV (3 h) was 61.8 fL and the Mono (3 h) was 2.4%. For the same compound, the Neu (3 h) was 18.2%, the PT (3 h) was 11.8 s and the Plat (3 h) was 124.6 x10_4/uL. It also gave an RBC (3 h) of 626.2 x10_4/ul, a Ret (3 h) of 8.3% and a WBC (3 h) of 70.9 x10_2/uL. It also gave a KIDNEY_L (3 h) of 0.9 g, a KIDNEY_R (3 h) of 0.9 g and a KIDNEY_TOTAL (3 h) of 1.9 g. The LIVER (3 h) was 9.6 g, the A/G (3 h) was 1.6 and the ALP (3 h) was 1056 IU/L. It also gave an ALT (3 h) of 43 IU/L, an AST (3 h) of 69.6 IU/L and a BUN (3 h) of 9.2 mg/dL. The CRE (3 h) was 0.4 mg/dL, the Ca (3 h) was 10.9 mg/dL and the Cl (3 h) was 103 meq/L. The DBIL (3 h) was 0.2 mg/dL, the GLC (3 h) was 314.6 mg/dL and the IP (3 h) was 11.1 mg/dL. The K (3 h) was 3.9 meq/L, the LDH (3 h) was 205.6 IU/L and the Na (3 h) was 141.4 meq/L. The PL (3 h) was 142.2 mg/dL, the RALB (3 h) was 3.5 g/dL and the TBIL (3 h) was 0.2 mg/dL. For the same compound, the TC (3 h) was 78.6 mg/dL, the TG (3 h) was 77.6 mg/dL and the TP (3 h) was 5.7 g/dL. For the same compound, the gamma-GTP (3 h) was 1 IU/L, the TERMINAL_BW (6 h) was 220.5 g and the APTT (6 h) was 19.3 s. It also gave a Bas (6 h) of 0.4%, an Eos (6 h) of 0.6% and a Fbg (6 h) of 247.2 mg/dL. The Hb (6 h) was 14.3 g/dL, the Ht (6 h) was 40.2% and the Lym (6 h) was 80.6%. It also gave an MCH (6 h) of 21.5 pg, an MCHC (6 h) of 35.6% and an MCV (6 h) of 60.3 fL. For the same compound, the Mono (6 h) was 2.4%, the Neu (6 h) was 15.4% and the PT (6 h) was 12.1 s. For the same compound, the Plat (6 h) was 127.2 x10_4/uL, the RBC (6 h) was 668 x10_4/ul and the Ret (6 h) was 7.4%. It also gave a WBC (6 h) of 75.2 x10_2/uL, a KIDNEY_L (6 h) of 0.9 g and a KIDNEY_R (6 h) of 0.9 g. It also gave a KIDNEY_TOTAL (6 h) of 1.9 g, an LIVER (6 h) of 9 g and an A/G (6 h) of 1.5. The ALP (6 h) was 846.6 IU/L, the ALT (6 h) was 40.4 IU/L and the AST (6 h) was 71.4 IU/L. It also gave a BUN (6 h) of 10 mg/dL, a CRE (6 h) of 0.4 mg/dL and a Ca (6 h) of 10.7 mg/dL. It also gave a Cl (6 h) of 101.2 meq/L, a DBIL (6 h) of 0.3 mg/dL and a GLC (6 h) of 371.2 mg/dL. It also gave an IP (6 h) of 10.4 mg/dL, a K (6 h) of 4.4 meq/L and an LDH (6 h) of 188.4 IU/L. The Na (6 h) was 141 meq/L, the PL (6 h) was 149.2 mg/dL and the RALB (6 h) was 3.6 g/dL. The TBIL (6 h) was 0.2 mg/dL, the TC (6 h) was 85 mg/dL and the TG (6 h) was 55.4 mg/dL. It also gave a TP (6 h) of 5.9 g/dL, a gamma-GTP (6 h) of 1.2 IU/L and a TERMINAL_BW (9 h) of 219.4 g. For the same compound, the APTT (9 h) was 19.1 s, the Bas (9 h) was 0.4% and the Eos (9 h) was 0.6%. The Fbg (9 h) was 251.8 mg/dL, the Hb (9 h) was 14.3 g/dL and the Ht (9 h) was 40.2%. It also gave a Lym (9 h) of 77.6%, an MCH (9 h) of 21.9 pg and an MCHC (9 h) of 35.7%. It also gave an MCV (9 h) of 61.4 fL, a Mono (9 h) of 3% and a Neu (9 h) of 18.4%. For the same compound, the PT (9 h) was 12.1 s, the Plat (9 h) was 126.7 x10_4/uL and the RBC (9 h) was 655.2 x10_4/ul. The Ret (9 h) was 7.1%, the WBC (9 h) was 81.9 x10_2/uL and the KIDNEY_L (9 h) was 1 g. For the same compound, the KIDNEY_R (9 h) was 0.9 g, the KIDNEY_TOTAL (9 h) was 1.9 g and the LIVER (9 h) was 8.7 g. The A/G (9 h) was 1.5, the ALP (9 h) was 968.6 IU/L and the ALT (9 h) was 40 IU/L. The AST (9 h) was 63.8 IU/L, the BUN (9 h) was 10.2 mg/dL and the CRE (9 h) was 0.4 mg/dL. For the same compound, the Ca (9 h) was 10.8 mg/dL, the Cl (9 h) was 101.8 meq/L and the DBIL (9 h) was 0.3 mg/dL. It also gave a GLC (9 h) of 352.4 mg/dL, an IP (9 h) of 10.4 mg/dL and a K (9 h) of 4.5 meq/L. It also gave an LDH (9 h) of 186.8 IU/L, a Na (9 h) of 140.8 meq/L and a PL (9 h) of 151.4 mg/dL. It also gave an RALB (9 h) of 3.6 g/dL, a TBIL (9 h) of 0.2 mg/dL and a TC (9 h) of 83.4 mg/dL. It also gave a TG (9 h) of 35.6 mg/dL, a TP (9 h) of 5.9 g/dL and a gamma-GTP (9 h) of 1 IU/L. For the same compound, the TERMINAL_BW (24 h) was 214.2 g, the APTT (24 h) was 21.2 s and the Bas (24 h) was 0.6%. For the same compound, the Eos (24 h) was 0.2%, the Fbg (24 h) was 392.4 mg/dL and the Hb (24 h) was 14.7 g/dL. For the same compound, the Ht (24 h) was 38.5%, the Lym (24 h) was 43% and the MCH (24 h) was 21.6 pg. The MCHC (24 h) was 38.2%, the MCV (24 h) was 56.4 fL and the Mono (24 h) was 5.6%. It also gave a Neu (24 h) of 49.6%, a PT (24 h) of 12.8 s and a Plat (24 h) of 145.8 x10_4/uL. For the same compound, the RBC (24 h) was 682.8 x10_4/ul, the Ret (24 h) was 6% and the WBC (24 h) was 79 x10_2/uL. It also gave a KIDNEY_L (24 h) of 0.9 g, a KIDNEY_R (24 h) of 0.9 g and a KIDNEY_TOTAL (24 h) of 1.9 g. The LIVER (24 h) was 8.6 g, the A/G (24 h) was 1.3 and the ALP (24 h) was 1505.2 IU/L. For the same compound, the ALT (24 h) was 131.6 IU/L, the AST (24 h) was 349.2 IU/L and the BUN (24 h) was 11.2 mg/dL. For the same compound, the CRE (24 h) was 0.5 mg/dL, the Ca (24 h) was 10.4 mg/dL and the Cl (24 h) was 96.8 meq/L. It also gave a DBIL (24 h) of 1.5 mg/dL, a GLC (24 h) of 190.8 mg/dL and an IP (24 h) of 9.2 mg/dL. For the same compound, the K (24 h) was 3.8 meq/L, the LDH (24 h) was 601.8 IU/L and the Na (24 h) was 142.2 meq/L. For the same compound, the PL (24 h) was 268 mg/dL, the RALB (24 h) was 3.3 g/dL and the TBIL (24 h) was 1.7 mg/dL. It also gave a TC (24 h) of 129.6 mg/dL, a TG (24 h) of 64.2 mg/dL and a TP (24 h) of 5.8 g/dL. The gamma-GTP (24 h) was 7.4 IU/L.
